Laboratory results taken from publication PMC11904993, “Humanized Candida and NanoBiT Assays Expedite Discovery of Bdf1 Bromodomain Inhibitors With Antifungal Potential” (Advanced Science, 2025).
Values joined by “and” are separate entries in the source; they are usually repeats but may differ in a detail not shown here. Identical values can stand only once.

Legend:
[1] = molecular target: human Brd4 BD1 (Homo sapiens, UniProt O60885); experiment: HTRF assay, inhibition of H4ac4 peptide binding; settings: Brd4 BD1
[2] = molecular target: T1, Bdf1/Swc4 (Saccharomyces cerevisiae, UniProt P35817); experiment: NanoBiT assay, control pair; format: cell-based, S. cerevisiae; design: remaining activity: dose or concentration left out as unconfirmed
T1 construct: expressed in transfected cells; host or cells: S. cerevisiae
Protocol: (§1) Yeast strains were distributed in 96‐well microplates containing SC(MSG)‐U medium (SC‐U medium with 0.1% monosodium glutamate instead of ammonium sulfate as a nitrogen source) and grown at 30 °C. 40 µL of exponentially growing cells were transferred in white 96‐well half‐area microplates (ProxiPlate Plus, Greiner Bio‐One) previously filled with 40 µL per well of SC(MSG) containing 100 µM furimazine. The microplates were then incubated for 10 min in the dark before the luminescence signals were recorded using a microplate reader (Ensight, PerkinElmer). Luminescence measurements were performed for 1 s per well at a distance of 0.1 mm between the plate and the detector. The luminescence values were normalized with the optical density (OD600) of the corresponding cultures. For NanoBiT assays with BET inhibitors, yeast cultures were grown overnight at 30 °C in SC(MSG) medium in the presence of serial dilutions of 24c and I‐BET726. Overnight cultures were diluted 5 fold in SC(MSG) and incubated for 1 h before luminescence was recorded as previously indicated. Luminescence values for each condition were normalized using the average of the luminescence recorded for the Bdf1/Swc4 and Bmh1/Bmh2 controls.

[3] = molecular target: CgBdf1 BD1 (Candida glabrata, UniProt Q6FWV7); experiment: HTRF assay, inhibition of H4ac4 peptide binding; design: species or system C. glabrata; settings: for HTRF signal, normalized (Figure 5A data): 240 min
[4] = molecular target: T2, Bdf1‐SmBiT/H2A.Z‐LgBiT pair (Saccharomyces cerevisiae, UniProt P35817); experiment: NanoBiT assay; format: cell-based, S. cerevisiae; design: remaining activity: dose or concentration left out as unconfirmed
T2 construct: expressed in transfected cells; host or cells: S. cerevisiae (H2A.Z-LgBiT strain)
Protocol: as §1

[5] = read-out: Normalized nanoBiT signal

Chain of CgBdf1 BD1 (Q6FWV7 entry or part of it): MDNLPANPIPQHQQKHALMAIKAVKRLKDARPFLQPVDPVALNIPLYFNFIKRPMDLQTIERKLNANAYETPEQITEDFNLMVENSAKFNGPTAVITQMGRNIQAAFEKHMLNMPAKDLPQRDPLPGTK
T2 sequence (P35817 whole entry): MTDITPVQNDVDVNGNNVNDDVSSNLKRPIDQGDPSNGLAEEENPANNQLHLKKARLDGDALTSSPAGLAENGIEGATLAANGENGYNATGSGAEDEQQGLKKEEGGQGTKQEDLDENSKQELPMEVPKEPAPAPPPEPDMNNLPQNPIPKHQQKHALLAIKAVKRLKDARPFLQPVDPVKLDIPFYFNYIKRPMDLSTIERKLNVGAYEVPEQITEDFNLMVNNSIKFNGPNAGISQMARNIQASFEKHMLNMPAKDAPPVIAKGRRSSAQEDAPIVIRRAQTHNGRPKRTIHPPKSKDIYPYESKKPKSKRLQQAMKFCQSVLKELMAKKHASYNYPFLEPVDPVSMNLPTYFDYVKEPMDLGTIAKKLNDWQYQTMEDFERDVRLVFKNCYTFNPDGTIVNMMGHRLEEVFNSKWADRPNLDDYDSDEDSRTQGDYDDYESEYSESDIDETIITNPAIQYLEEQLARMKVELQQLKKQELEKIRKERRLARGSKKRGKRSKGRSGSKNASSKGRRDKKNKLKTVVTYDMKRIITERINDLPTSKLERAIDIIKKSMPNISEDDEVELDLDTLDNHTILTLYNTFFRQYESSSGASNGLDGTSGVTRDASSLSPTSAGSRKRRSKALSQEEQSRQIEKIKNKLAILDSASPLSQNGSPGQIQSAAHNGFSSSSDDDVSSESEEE
T1 sequence (P35817 whole entry): as above
T1 sequence (P53201 whole entry, further chain): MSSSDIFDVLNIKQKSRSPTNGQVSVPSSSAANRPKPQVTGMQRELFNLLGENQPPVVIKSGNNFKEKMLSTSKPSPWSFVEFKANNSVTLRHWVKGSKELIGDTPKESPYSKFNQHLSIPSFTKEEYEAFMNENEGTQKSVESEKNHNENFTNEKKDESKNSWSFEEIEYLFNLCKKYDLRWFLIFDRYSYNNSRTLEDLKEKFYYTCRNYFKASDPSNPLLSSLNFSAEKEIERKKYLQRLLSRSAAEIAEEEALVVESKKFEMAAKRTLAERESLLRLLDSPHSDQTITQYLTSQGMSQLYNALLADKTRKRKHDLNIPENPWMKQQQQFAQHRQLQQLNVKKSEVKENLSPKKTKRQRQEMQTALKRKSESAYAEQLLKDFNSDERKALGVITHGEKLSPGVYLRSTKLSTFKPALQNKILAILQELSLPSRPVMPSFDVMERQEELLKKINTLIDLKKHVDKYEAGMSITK

CC(=O)N1c2ccc(-c3ccc(C(=O)O)cc3)cc2C(Nc2ccc(Cl)cc2)CC1C (stereo not shown) [I-BET726]
HTRF signal, normalized (Figure 5A data) ([1]; 0.13 nM): 104.60 and 101.29 and 100.85 and 99.75 | HTRF signal, normalized (Figure 5A data) ([1]; 0.34 nM): 101.49 and 102.55 and 101.26 and 101.01 | HTRF signal, normalized (Figure 5A data) ([1]; 0.84 nM): 100.78 and 99.59 and 99.33 and 97.74 | HTRF signal, normalized (Figure 5A data) ([1]; 2.10 nM): 99.49 and 98.84 and 98.60 | HTRF signal, normalized (Figure 5A data) ([1]; 5.24 nM): 95.52 and 94.38 and 93.54 and 94.69 | HTRF signal, normalized (Figure 5A data) ([1]; 13.11 nM): 83.95 and 83.77 and 84.76 and 83.85 | HTRF signal, normalized (Figure 5A data) ([1]; 32.77 nM): 48.83 and 48.92 and 64.32 and 62.36 | HTRF signal, normalized (Figure 5A data) ([1]; 81.92 nM): 17.12 and 16.89 and 27.28 and 27.02 | HTRF signal, normalized (Figure 5A data) ([1]; 204.8 nM): 4.51 and 4.84 and 6.56 and 8.13 | HTRF signal, normalized (Figure 5A data) ([1]; 512 nM): 0.14 and 0.27 and 0.17 and 0.18 | remaining activity at 24.41 µM ([2]; Bdf1-SmBiT, Swc4-LgBiT, 0.02441 mM, Fig 4C, read-out: Normalized nanoBiT signal): 95% | remaining activity at 97.66 µM ([2]; Bdf1-SmBiT, Swc4-LgBiT, 0.09766 mM, Fig 4C, read-out: Normalized nanoBiT signal): 93% | remaining activity at 195.31 µM ([2]; Bdf1-SmBiT, Swc4-LgBiT, 0.19531 mM, Fig 4C, read-out: Normalized nanoBiT signal): 95% | remaining activity at 390.63 µM ([2]; Bdf1-SmBiT, Swc4-LgBiT, 0.39063 mM, Fig 4C, read-out: Normalized nanoBiT signal): 91% | remaining activity at 781.25 µM ([2]; Bdf1-SmBiT, Swc4-LgBiT, 0.78125 mM, Fig 4C, read-out: Normalized nanoBiT signal): 90% | remaining activity ([2]; Bdf1-SmBiT, Swc4-LgBiT, […], Fig 4C, read-out: Normalized nanoBiT signal): 99% | inhibition of NanoBiT signal, Bdf1/Swc4 ([2]; control pair independent of Bdf1 BDs): not observed | remaining activity at 48.83 µM [2, 5]: 92% | HTRF signal, normalized (Figure 5A data) ([3]; 0.00524 µM): 100.65 and 90.91 and 103.41 | activity at 0.01311 µM ([3]; 4 h, CgBD1, 13.11 nM, read-out: HTRF signal, normalized (Figure 5A data)): 104% | activity at 0.03277 µM ([3]; 4 h, CgBD1, 32.77 nM, read-out: HTRF signal, normalized (Figure 5A data)): 101% | activity at 0.08192 µM ([3]; 4 h, CgBD1, 81.92 nM, read-out: HTRF signal, normalized (Figure 5A data)): 100% | activity at 0.2048 µM ([3]; 4 h, CgBD1, 204.8 nM, read-out: HTRF signal, normalized (Figure 5A data)): 95.5% | activity at 0.512 µM ([3]; 4 h, CgBD1, 512 nM, read-out: HTRF signal, normalized (Figure 5A data)): 85.3% | activity at 3.2 µM ([3]; 4 h, CgBD1, 3200 nM, read-out: HTRF signal, normalized (Figure 5A data)): 40.5% | activity at 8 µM ([3]; 4 h, CgBD1, 8000 nM, read-out: HTRF signal, normalized (Figure 5A data)): 10.1% | activity at 0.00524 µM ([3]; 4 h, read-out: HTRF signal, normalized (Figure 5A data)): 103% | HTRF signal, normalized (Figure 5A data) ([3]; CgBD1, 2.10 nM, 0.0021 µM): 106.06 and 99.07 and 83.43 and 98.63 | HTRF signal, normalized (Figure 5A data) ([3]; CgBD1, 13.11 nM, 0.01311 µM): 90.77 and 95.51 and 103.15 | HTRF signal, normalized (Figure 5A data) ([3]; CgBD1, 32.77 nM, 0.03277 µM): 93.49 and 101.00 and 99.77 | HTRF signal, normalized (Figure 5A data) ([3]; CgBD1, 204.8 nM, 0.2048 µM): 107.13 and 88.05 and 91.40 | HTRF signal, normalized (Figure 5A data) ([3]; CgBD1, 512 nM, 0.512 µM): 93.88 and 86.26 and 86.89 | HTRF signal, normalized (Figure 5A data) ([3]; CgBD1, 1280 nM, 1.28 µM): 77.62 and 66.65 and 70.52 | HTRF signal, normalized (Figure 5A data) ([3]; CgBD1, 3200 nM, 3.2 µM): 48.37 and 45.98 and 46.29 | HTRF signal, normalized (Figure 5A data) ([3]; CgBD1, 8000 nM, 8 µM): 13.26 and 14.56 and 18.60 | IC50 ([3]; Fig 5A, four replicates, read-out: IC50 (μM) BD1, C. gla. Bdf1): 2.52 ± 0.14 µM | remaining activity at 24.41 µM ([4]; Bdf1-SmBiT, Htz1-LgBiT, 0.02441 mM, Fig 4C, read-out: Normalized nanoBiT signal): 92% | remaining activity at 97.66 µM ([4]; Bdf1-SmBiT, Htz1-LgBiT, 0.09766 mM, Fig 4C, read-out: Normalized nanoBiT signal): 93% | remaining activity at 195.31 µM ([4]; Bdf1-SmBiT, Htz1-LgBiT, 0.19531 mM, Fig 4C, read-out: Normalized nanoBiT signal): 96% | remaining activity at 390.63 µM ([4]; Bdf1-SmBiT, Htz1-LgBiT, 0.39063 mM, Fig 4C, read-out: Normalized nanoBiT signal): 92% | remaining activity at 781.25 µM ([4]; Bdf1-SmBiT, Htz1-LgBiT, 0.78125 mM, Fig 4C, read-out: Normalized nanoBiT signal): 83% | remaining activity at 1562.5 µM ([4]; Bdf1-SmBiT, Htz1-LgBiT, 1.56250 mM, Fig 4C, read-out: Normalized nanoBiT signal): 65% | remaining activity at 3125 µM ([4]; Bdf1-SmBiT, Htz1-LgBiT, 3.12500 mM, Fig 4C, read-out: Normalized nanoBiT signal): 46% | remaining activity ([4]; Bdf1-SmBiT, Htz1-LgBiT, […], Fig 4C, read-out: Normalized nanoBiT signal): 39% | IC50 ([4]; mean and s.d., 4 independent experiments, read-out: IC50 (μM) (ScBdf1 / H2A.Z) NanoBiT signal): 2.1 µM | remaining activity at 48.83 µM [4, 5]: 96%
